From US8425945B2, “Methods and compositions for regulating biofilm development” (NewSouth Innovations Pty Limited, priority 2005, dated 2013)

Experiments:
[1] = test system: P. aeruginosa PAO1; test: Biofilm to planktonic transition on microscope slides in petri dishes with NO donors/scavenger; type: cell-based, Pseudomonas aeruginosa; settings: for biofilm formation (percentage of surface coverage) / planktonic growth (OD600 nm of supernatant): NO donor 1 μM, 24 hours, lesser extent than SNP
[2] = test system: S. marcescens biofilms; test: Dispersal of biofilms on slides, surface coverage; type: cell-based, Serratia marcescens; settings: SNAP 100 nM, 24 hours
[3] = test system: Vibrio cholerae biofilms; test: Dispersal of biofilms on slides, surface coverage; type: cell-based; settings: 1 μM GSNO, 24 hours
[4] = test system: P. aeruginosa biofilms; test: Sensitivity of biofilms grown with SNP to antimicrobial agents; type: cell-based, Pseudomonas aeruginosa; settings: tobramycin 100 μM, 30 minutes, with 500 nM SNP

CC(=O)N[C@H](C(=O)O)C(C)(C)SN=O (racemic) [SNAP, S-nitroso-N-acetylpenicillamine]
biofilm formation (percentage of surface coverage) [1]: decreases in biofilm formation | planktonic growth (OD600 nm of supernatant) [1]: increases in planktonic growth | dispersal of biofilms [2]: effective for dispersal

N[C@@H](CCC(=O)N[C@@H](CSN=O)C(=O)NCC(=O)O)C(=O)O [GSNO, S-nitroso-L-glutathione]
biofilm formation (percentage of surface coverage) [1]: decreases in biofilm formation | planktonic growth (OD600 nm of supernatant) [1]: increases in planktonic growth | stability of biofilms [3]: significant effect on stability

CC1(C)N([O])C(c2ccccc2)=[N+]([O-])C1(C)C [PTIO, 2-phenyl-4,4,5,5-tetramethyl-imidazoline-1-oxyl 3-oxide]
reduction of the SNP effect in both planktonic and biofilm phenotypes ([1]; PTIO 1 mM in addition to SNP 500 nM): ≥ 40%

NC[C@H]1O[C@H](O[C@H]2[C@H](O)[C@@H](O[C@H]3O[C@H](CO)[C@@H](O)[C@H](N)[C@H]3O)[C@H](N)C[C@@H]2N)[C@H](N)C[C@@H]1O [tobramycin]
antimicrobial giving the highest effect in combination with SNP [4]: highest effect
